Results: US8916526B2, “Flavanone derivative” (National University Corporation Okayama University, priority 2009, dated 2014)
Converted amounts (≈) assume the structure as drawn.

How the values were obtained:
[1] = tested on: Vancomycin-resistant enterococci FN-1; experiment: In vitro infectivity assay (MIC), Exp. Ex. 2-1; assay type: cell-based; details: Gram-positive; microdilution, MIC after 24 h
Protocol: (§1) The antibacterial activities were measured based on broth dilution techniques of international standards (Clinical Laboratory Standards Institute: CLSI). The activities were shown by minimum inhibitory concentrations (MICs) determined by inoculating the above-mentioned strains at a concentration of about 10^5 […] into Mueller-Hinton broth (manufactured by Difco) containing 0.85% NaCl in 96-well microplates and incubating the plates at 35° C. for 24 hours. Measurement was carried out three times.
(§2) The antibacterial activities of the compounds of the present invention against various strains such as vancomycin-resistant enterococci (VRE), vancomycin intermediate-resistant Staphylococcus aureus (VISA), methicillin-resistant Staphylococcus aureus (MRSA), and methicillin-sensitive Staphylococcus aureus (MSSA) were examined. Of the bacteria used in MIC measurement in this test example, clinical bacteria of MRSA (OM481 strain and OM584 strain) were supplied from Okayama University Hospital (Japan). An MRSA strain N315, a vancomycin intermediate-resistant Staphylococcus aureus (VISA) strain Mu50, and a methicillin-sensitive Staphylococcus aureus (MSSA) strain FDA 209P were used as controls. Vancomycin-resistant enterococcus (VRE) strains NCTC 12201 and FN-1 were supplied from the National Institute of Infectious Disease (Japan).

[2] = tested on: Vancomycin-resistant enterococci NCTC 12201; experiment: In vitro infectivity assay (MIC), Exp. Ex. 2-1; assay type: cell-based; details: Gram-positive; microdilution, MIC after 24 h
Protocol: as §1, §2

[3] = tested on: Vancomycin intermediate-resistant Staphylococcus aureus Mu50; experiment: In vitro infectivity assay (MIC), Exp. Ex. 2-1; assay type: cell-based; details: Gram-positive; microdilution, MIC after 24 h
Protocol: as §1, §2

[4] = tested on: Methicillin-resistant S. aureus COL; experiment: In vitro infectivity assay (MIC), Exp. Ex. 2-1; assay type: cell-based, Staphylococcus aureus; details: Gram-positive; microdilution, MIC after 24 h
Protocol: as §1, §2

[5] = tested on: Methicillin-resistant S. aureus OM481; experiment: In vitro infectivity assay (MIC), Exp. Ex. 2-1; assay type: cell-based, Staphylococcus aureus; details: Gram-positive; microdilution, MIC after 24 h
Protocol: as §1, §2

[6] = tested on: Methicillin-resistant S. aureus OM584; experiment: In vitro infectivity assay (MIC), Exp. Ex. 2-1; assay type: cell-based, Staphylococcus aureus; details: Gram-positive; microdilution, MIC after 24 h
Protocol: as §1, §2

[7] = tested on: Methicillin sensitive S. aureus 209P; experiment: In vitro infectivity assay (MIC), Exp. Ex. 2-1; assay type: cell-based, Staphylococcus aureus; details: Gram-positive; microdilution, MIC after 24 h
Protocol: as §1, §2

[8] = tested on: Methicillin-resistant S. aureus N315; experiment: In vitro infectivity assay (MIC), Exp. Ex. 2-1; assay type: cell-based, Staphylococcus aureus; details: Gram-positive; microdilution, MIC after 24 h
Protocol: as §1, §2

[9] = biological target: T1, Staphylococcus aureus Topoisomerase IV (Staphylococcus aureus, UniProt P0C1S7+P0C1U9); experiment: Topoisomerase IV inhibition (decatenation kit), Exp. Ex. 2-3; assay type: biochemical; details: decatenation of kDNA, 37° C., 30 minutes; read-out: IC50 (S. aureus topoisomerase IV inhibitions)
T1 construct: purchased John Innes Enterprises
T1 sequence (P0C1U9 whole entry): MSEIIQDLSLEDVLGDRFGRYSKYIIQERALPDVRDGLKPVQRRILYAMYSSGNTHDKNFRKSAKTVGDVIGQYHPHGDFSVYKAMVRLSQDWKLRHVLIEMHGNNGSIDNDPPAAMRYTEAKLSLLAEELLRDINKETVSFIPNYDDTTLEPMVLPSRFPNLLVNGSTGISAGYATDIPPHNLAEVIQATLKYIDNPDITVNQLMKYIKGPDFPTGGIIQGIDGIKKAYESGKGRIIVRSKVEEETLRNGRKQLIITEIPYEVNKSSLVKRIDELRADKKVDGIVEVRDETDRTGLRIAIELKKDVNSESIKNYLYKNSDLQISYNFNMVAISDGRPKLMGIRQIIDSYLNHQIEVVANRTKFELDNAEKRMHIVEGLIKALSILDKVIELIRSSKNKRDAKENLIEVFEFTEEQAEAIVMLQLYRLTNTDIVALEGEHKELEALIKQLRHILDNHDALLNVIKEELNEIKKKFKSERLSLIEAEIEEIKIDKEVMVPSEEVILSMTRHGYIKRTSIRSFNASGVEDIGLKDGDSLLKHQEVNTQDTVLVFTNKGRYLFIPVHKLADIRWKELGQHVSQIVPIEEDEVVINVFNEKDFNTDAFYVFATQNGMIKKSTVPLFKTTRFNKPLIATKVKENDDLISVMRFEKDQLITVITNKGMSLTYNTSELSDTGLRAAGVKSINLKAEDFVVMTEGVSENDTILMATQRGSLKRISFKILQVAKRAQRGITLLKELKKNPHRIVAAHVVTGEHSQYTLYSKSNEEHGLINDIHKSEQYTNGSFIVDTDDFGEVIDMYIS
T1 sequence (P0C1S7 whole entry): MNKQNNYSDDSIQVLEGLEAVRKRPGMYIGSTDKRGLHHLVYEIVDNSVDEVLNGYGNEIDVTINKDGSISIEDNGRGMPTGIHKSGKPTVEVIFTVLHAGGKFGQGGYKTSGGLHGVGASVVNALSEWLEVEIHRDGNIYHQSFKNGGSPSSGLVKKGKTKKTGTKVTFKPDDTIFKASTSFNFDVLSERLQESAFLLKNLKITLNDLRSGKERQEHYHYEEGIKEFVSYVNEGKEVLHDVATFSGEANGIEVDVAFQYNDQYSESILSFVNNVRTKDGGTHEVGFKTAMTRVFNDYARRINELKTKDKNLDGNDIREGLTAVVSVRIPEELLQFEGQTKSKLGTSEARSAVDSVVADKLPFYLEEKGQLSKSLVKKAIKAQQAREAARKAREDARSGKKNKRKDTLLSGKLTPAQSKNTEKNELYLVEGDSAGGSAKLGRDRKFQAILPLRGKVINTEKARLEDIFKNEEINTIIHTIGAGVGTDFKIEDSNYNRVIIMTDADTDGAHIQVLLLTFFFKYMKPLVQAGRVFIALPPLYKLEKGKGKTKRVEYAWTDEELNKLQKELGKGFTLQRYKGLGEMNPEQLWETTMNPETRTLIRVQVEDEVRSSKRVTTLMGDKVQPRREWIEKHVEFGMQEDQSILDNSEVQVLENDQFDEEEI
Protocol: (§3) Staphylococcus aureus Topoisomerase IV and Escherichia coli Topoisomerase IV were purchased from John Innes Enterprises. 1 unit of topoisomerase IV was cultured with 200 ng of kinetoplast DNA (kDNA) in 30 L of a reaction solution at 37° C. for 30 minutes under the conditions of 50 mM Tris-HCl (pH 7.5) (S. aureus)/50 mM HEPES-KOH (pH 7.6) (E. coli), 5 mM MgCl2 (S. aureus)/5 mM magnesium acetate (E. coli), 350 mM potassium glutamate (S. aureus)/100 mM potassium glutamate (E. coli), 5 mM dithiotheri (S. aureus)/10 mM dithiotheri (E. coli), 1.5 mM ATP (S. aureus)/1 mM ATP (E. coli), and 40% (w/v) glycerol. The reactions were stopped by adding 8 L of a reaction stop solution (40% sucrose, 100 mM Tris.HCl (pH 7.5), 1 mM EDTA, 0.5 mg/ml bromophenol blue). Agarose gel (1.0%) was poured into TAE (40 mM Tris acetate, 2 mM EDTA).

[10] = biological target: T2, Escherichia coli Topoisomerase IV (Escherichia coli, UniProt P0AFI2+P20083); experiment: as above; assay type: biochemical; details: decatenation of kDNA, 37° C., 30 minutes; read-out: IC50 (E. coli topoisomerase IV inhibitions)
T2 construct: purchased John Innes Enterprises
T2 sequence (P20083 whole entry): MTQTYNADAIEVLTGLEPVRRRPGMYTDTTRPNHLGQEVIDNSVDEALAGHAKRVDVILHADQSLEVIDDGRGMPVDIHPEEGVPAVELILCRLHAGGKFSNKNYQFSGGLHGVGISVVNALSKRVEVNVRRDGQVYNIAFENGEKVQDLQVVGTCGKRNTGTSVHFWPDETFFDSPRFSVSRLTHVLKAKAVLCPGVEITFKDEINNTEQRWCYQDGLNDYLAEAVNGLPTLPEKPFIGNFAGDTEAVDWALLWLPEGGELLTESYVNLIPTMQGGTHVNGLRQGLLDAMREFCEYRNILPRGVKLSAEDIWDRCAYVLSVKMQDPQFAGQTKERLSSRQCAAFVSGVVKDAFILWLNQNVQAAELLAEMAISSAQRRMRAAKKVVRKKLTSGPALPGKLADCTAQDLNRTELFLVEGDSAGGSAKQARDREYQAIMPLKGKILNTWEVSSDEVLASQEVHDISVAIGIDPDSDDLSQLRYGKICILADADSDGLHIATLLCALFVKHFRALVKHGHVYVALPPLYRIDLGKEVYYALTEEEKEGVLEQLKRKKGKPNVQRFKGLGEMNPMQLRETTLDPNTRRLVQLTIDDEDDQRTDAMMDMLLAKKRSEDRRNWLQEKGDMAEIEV
T2 sequence (P0AFI2 whole entry): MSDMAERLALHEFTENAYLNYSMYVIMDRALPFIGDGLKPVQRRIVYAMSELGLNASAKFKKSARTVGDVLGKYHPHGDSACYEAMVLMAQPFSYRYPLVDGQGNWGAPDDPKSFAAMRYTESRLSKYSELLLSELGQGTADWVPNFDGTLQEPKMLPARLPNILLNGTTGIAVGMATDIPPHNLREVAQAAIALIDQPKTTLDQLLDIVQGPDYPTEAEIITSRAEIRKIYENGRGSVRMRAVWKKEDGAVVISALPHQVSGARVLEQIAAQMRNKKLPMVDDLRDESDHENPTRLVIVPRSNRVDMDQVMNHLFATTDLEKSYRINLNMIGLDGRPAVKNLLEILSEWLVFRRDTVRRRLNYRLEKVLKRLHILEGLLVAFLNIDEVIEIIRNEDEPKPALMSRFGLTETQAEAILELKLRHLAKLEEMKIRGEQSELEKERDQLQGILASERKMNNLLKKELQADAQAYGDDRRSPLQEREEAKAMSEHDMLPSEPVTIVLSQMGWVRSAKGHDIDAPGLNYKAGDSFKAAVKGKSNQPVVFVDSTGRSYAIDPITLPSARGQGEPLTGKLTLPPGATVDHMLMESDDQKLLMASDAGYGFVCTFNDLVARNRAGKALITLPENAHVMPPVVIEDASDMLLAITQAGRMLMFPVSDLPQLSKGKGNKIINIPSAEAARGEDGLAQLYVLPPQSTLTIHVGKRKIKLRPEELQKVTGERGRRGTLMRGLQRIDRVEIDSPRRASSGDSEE
Protocol: as §3

[11] = biological target: T3, E. coli DNA gyrase (Escherichia coli, UniProt P0AES4+P0AES6); experiment: DNA gyrase inhibition (supercoiling kit), Exp. Ex. 2-2; assay type: biochemical; details: supercoiling activity, 37° C., 30 minutes; read-out: IC50 (E. coli DNA gyrase inhibitions)
T3 construct: purchased John Innes Enterprises #K0001
T3 sequence (P0AES4 whole entry, one chain of several): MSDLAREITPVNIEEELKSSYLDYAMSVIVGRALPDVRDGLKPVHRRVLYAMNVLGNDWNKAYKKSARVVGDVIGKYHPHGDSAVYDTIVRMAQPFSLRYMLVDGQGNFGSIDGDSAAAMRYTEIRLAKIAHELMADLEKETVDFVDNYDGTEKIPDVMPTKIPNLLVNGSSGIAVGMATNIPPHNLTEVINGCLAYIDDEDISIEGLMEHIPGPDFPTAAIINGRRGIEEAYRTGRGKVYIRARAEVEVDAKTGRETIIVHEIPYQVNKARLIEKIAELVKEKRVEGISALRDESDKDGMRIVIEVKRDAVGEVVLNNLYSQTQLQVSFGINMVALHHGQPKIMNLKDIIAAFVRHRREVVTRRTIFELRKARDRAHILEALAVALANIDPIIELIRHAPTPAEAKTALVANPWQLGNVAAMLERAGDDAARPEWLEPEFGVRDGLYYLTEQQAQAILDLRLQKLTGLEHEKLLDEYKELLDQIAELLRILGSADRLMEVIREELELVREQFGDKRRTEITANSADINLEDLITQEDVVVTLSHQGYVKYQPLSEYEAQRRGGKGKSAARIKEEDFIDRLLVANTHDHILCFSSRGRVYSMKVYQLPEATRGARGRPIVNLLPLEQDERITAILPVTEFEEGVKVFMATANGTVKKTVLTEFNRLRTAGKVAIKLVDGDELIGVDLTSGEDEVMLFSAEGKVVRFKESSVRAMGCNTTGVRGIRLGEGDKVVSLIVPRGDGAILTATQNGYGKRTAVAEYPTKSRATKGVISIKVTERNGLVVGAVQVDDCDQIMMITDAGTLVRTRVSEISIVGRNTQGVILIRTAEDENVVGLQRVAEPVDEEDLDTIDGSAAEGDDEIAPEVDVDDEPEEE
Protocol: As a kit for measurement of DNA gyrase of Escherichia coli, a product purchased from John Innes Enterprises (Gyrase Supercoiling assay kit #K0001) was used. Relaxed DNA was modified with gyrase into supercoiled DNA, and reaction products were separated by electrophoresis depending on the sizes of the molecular weights to examine anti-gyrase effects (IC50). 1 unit (1 U) of DNA gyrase and […] of relaxed pBR322 DNA were added to […] of the reaction solution, and the mixture was allowed to react at 37° C. for 30 minutes in the presence of 35 mM Tris-HCl (pH 7.5), 24 mM KCl, 4 mM MgCl2, 2 mM DTT, 1.8 mM spermidine, 1 mM ATP, 6.5% (w/v) glycerol, and 0.1 mg/ml BSA. The reactions were stopped using […] of a reaction stop solution (40% sucrose, 100 mM Tris-HCl (pH 7.5), 1 mM EDTA, 0.5 mg/ml bromophenol blue).

[12] = tested on: Pseodomonas aeruginosa PAOI; experiment: Antibacterial activity (MIC) against Gram-negative strains, microdilution; assay type: cell-based; details: MIC after 24 h
Protocol: as §1

[13] = tested on: Escherichia coli K-12; experiment: as above; assay type: cell-based; details: MIC after 24 h
Protocol: as §1

[14] = tested on: Streptococcus pneumoniae R6; experiment: In vitro infectivity assay (MIC), Exp. Ex. 2-1; assay type: cell-based; details: Gram-positive; microdilution, MIC after 24 h

Row | Compound | MIC VRE FN-1 [1] [mg/L] | MIC VRE NCTC 12201 [2] [mg/L] | MIC VISA Mu50 [3] [mg/L] | MIC MRSA COL [4] [mg/L] | MIC MRSA OM481 [5] [mg/L] | MIC MRSA OM584 [6] [mg/L] | MIC MSSA 209P [7] [mg/L] | MIC MRSA N315 [8] [mg/L] | IC50 [9] [µM] | IC50 [10] [µM] | IC50 [11] [µM] | MIC (Gram-nagative) PAO1 [12] [mg/L] | MIC (Gram-nagative) K-12 [13] [mg/L] | MIC S. Pneumoniae R6 [14] [mg/L]
1 | O=C(OC[C@H]1O[C@@H](Oc2c(-c3ccc(O)c(O)c3)oc3cc(O)cc(O)c3c2=O)[C@H](OC(=O)c2ccc(F)cc2)[C@@H](O)[C@H]1O)c1ccc(F)cc1 [Compound 14c, 2-(3′,4′-Dihydroxyphenyl)-5,7-dihydroxy-3-β-D-[2″,6″-di-O-(4-fluorobenzoyl)]galactosyl-4H-chromen-4-one] | 4 (≈ 5.65 µM) | 4 (≈ 5.65 µM) | 2 (≈ 2.82 µM) | 8 (≈ 11.3 µM) | 2 (≈ 2.82 µM) | 2 (≈ 2.82 µM) | 4 (≈ 5.65 µM) | 8 (≈ 11.3 µM) | 0.52 | 7.02 | 0.38 | >128 | >128 | 4 (≈ 5.65 µM)
2 | O=C(CCc1ccc(F)cc1)OC[C@H]1O[C@@H](Oc2c(-c3ccc(O)c(O)c3)oc3cc(O)cc(O)c3c2=O)[C@H](OC(=O)CCc2ccc(F)cc2)[C@@H](O)[C@H]1O [Compound 14i, 2-(3′,4′-Dihydroxyphenyl)-5,7-dihydroxy-3-β-D-{2″,6″-di-O-[3′″-(4-fluorophenylpropanoyl)]}galactosyl-4H-chromen-4-one] | 0.25 (≈ 0.327 µM) | 0.25 (≈ 0.327 µM) | 0.5 (≈ 0.654 µM) | 0.5 (≈ 0.654 µM) | 0.13 (≈ 0.17 µM) | 0.13 (≈ 0.17 µM) | 0.13 (≈ 0.17 µM) | 0.13 (≈ 0.17 µM) | 0.22 | 7.16 | 0.78 | >128 | >128 | 0.13 (≈ 0.17 µM)
3 | CC(=O)OC[C@H]1O[C@@H](Oc2cc(O)c3c(=O)c(O[C@@H]4O[C@H](COC(C)=O)[C@H](OC(C)=O)[C@H](OC(C)=O)[C@H]4OC(C)=O)c(-c4ccc(O)c(O)c4)oc3c2)[C@H](OC(C)=O)[C@@H](OC(C)=O)[C@H]1OC(C)=O [Compound 5, 2-(3′,4′Dihydroxyphenyl)-5-hydroxy-3,7-di-β-D-octaacetylgalactosyl-4H-chromen-4-one] | 32 (≈ 33.2 µM) | 32 (≈ 33.2 µM) | 64 (≈ 66.5 µM) | 128 (≈ 133 µM) | 32 (≈ 33.2 µM) | 32 (≈ 33.2 µM) | 64 (≈ 66.5 µM) | 64 (≈ 66.5 µM) | – | – | – | >128 | >128 | 64 (≈ 66.5 µM)
4 | penicillin [reference compound] | – | – | – | – | – | – | – | – | – | – | – | – | – | 0.5
